Data published in the supplement of paper PMC10307832.

Tests used:
Test in all cases: relative viability (nuclei count vs DMSO), 5 days (fraction); higher = more cells survive
Tosedostat + Vorinostat = compound: CC(C)C[C@@H](C(=O)N[C@H](C(=O)OC1CCCC1)c1ccccc1)[C@H](O)C(=O)NO [Tosedostat] + O=C(CCCCCCC(=O)Nc1ccccc1)NO [Vorinostat] (partner 1 µM)
Summary of the method: (§1)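 A single step with final 0.05% Triton X-100, 1% formaldehyde and 1 ug/ml Hoechst fixed the cells and stained nuclei 5 days after treatment. Lung cancer cell lines in 1536-well plates had been treated by pin tool the day after seeding with one drug alone or a fixed anchor-drug dose plus five library-drug doses (not always all listed) in √10 steps, and nuclei were counted on 4× images. Relative viability is the ratio of nuclei in treated wells to nuclei in vehicle wells, taken as the median of duplicate plates.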

Tosedostat + Phenformin = compound: CC(C)C[C@@H](C(=O)N[C@H](C(=O)OC1CCCC1)c1ccccc1)[C@H](O)C(=O)NO [Tosedostat] + N=C(N)NC(=N)NCCc1ccccc1 [Phenformin] (partner 250 µM)
Summary of the method: as §1

[1] = compound: CC1=NN=C(O1)C2=NN=C(C=C2)N3CCC(CC3)OC4=C(C=CC(=C4)F)Cl + O=C(CCCCCCC(=O)Nc1ccccc1)NO [Vorinostat] (partner 1 µM)
Summary of the method: as §1

[2] = compound: CC1=NN=C(O1)C2=NN=C(C=C2)N3CCC(CC3)OC4=C(C=CC(=C4)F)Cl + CS(=O)(=O)CCNCc1ccc(-c2ccc3ncnc(Nc4ccc(OCc5cccc(F)c5)c(Cl)c4)c3c2)o1 [Lapatinib] (partner 2 µM)
Summary of the method: as §1

Row | Cell Line | relative viability (Tosedostat + Vorinostat; first compound 0.02 µM) | relative viability (Tosedostat + Vorinostat; first compound 0.06325 µM) | relative viability (Tosedostat + Vorinostat; first compound 0.2 µM) | relative viability (Tosedostat + Vorinostat; first compound 0.6325 µM) | relative viability (Tosedostat + Vorinostat; first compound 2 µM) | relative viability (Tosedostat + Phenformin; first compound 0.02 µM) | relative viability (Tosedostat + Phenformin; first compound 0.06325 µM) | relative viability (Tosedostat + Phenformin; first compound 0.2 µM) | relative viability (Tosedostat + Phenformin; first compound 0.6325 µM) | relative viability (Tosedostat + Phenformin; first compound 2 µM) | relative viability ([1]; first compound 0.253 µM) | relative viability ([1]; first compound 0.8 µM) | relative viability ([1]; first compound 2.53 µM) | relative viability ([1]; first compound 8 µM) | relative viability ([2]; first compound 0.253 µM) | relative viability ([2]; first compound 0.8 µM) | relative viability ([2]; first compound 2.53 µM) | relative viability ([2]; first compound 8 µM)
1 | NCI-H1793 | 0.683 | 0.72 | 0.714 | 0.665 | 0.684 | 0.252 | 0.321 | 0.284 | 0.31 | 0.203 | 0.683 | 0.567 | 0.79 | 0.666 | 0.75 | 0.688 | 0.822 | 0.581
2 | NCI-H2228 | 0.615 | 0.348 | 0.548 | 0.25 | 0.236 | 0.334 | 0.266 | 0.291 | 0.244 | 0.175 | 0.454 | 0.586 | 0.391 | 0.542 | 1.03 | 1.01 | 1.13 | 0.848
3 | COR-L 105 | 0.92 | 0.825 | 1.1 | 0.785 | 0.759 | 0.517 | 0.465 | 0.447 | 0.399 | 0.363 | 0.797 | 0.919 | 0.794 | 0.8 | 0.349 | 0.36 | 0.332 | 0.417
4 | NCI-H1650 | 0.51 | 0.641 | 0.735 | 0.841 | 0.704 | 0.484 | 0.501 | 0.399 | 0.399 | 0.281 | 0.323 | 0.289 | 0.37 | 0.333 | – | 0.71 | 0.691 | 0.566
5 | NCI-H1299 | – | – | – | – | – | – | – | – | – | – | – | – | – | – | 0.737 | 0.718 | 0.752 | 0.687
6 | ChaGo-K-1 | 0.803 | 0.754 | 0.771 | 0.717 | 0.62 | 0.435 | 0.522 | 0.487 | 0.412 | 0.359 | 0.546 | 0.444 | 0.55 | 0.448 | – | – | – | –
7 | NCI-H522 | 1.12 | 0.897 | 0.954 | 0.918 | 0.916 | 1.31 | 0.592 | 0.659 | 0.624 | 0.58 | 0.958 | 0.925 | 0.964 | 0.805 | – | – | – | –
8 | NCI-H1703 | – | – | – | – | – | – | – | – | – | – | – | – | – | – | 1.06 | 0.795 | 0.904 | 0.76
9 | NCI-H1648 | 0.316 | 0.661 | 0.553 | 0.365 | 0.354 | – | – | – | – | – | 0.376 | 0.417 | 0.5 | 0.513 | – | – | – | –
10 | NCI-H2342 | 0.851 | 0.79 | 0.75 | 0.702 | 0.843 | 0.513 | 0.733 | 0.558 | 0.494 | 0.442 | 0.551 | 0.551 | 0.583 | 0.436 | – | – | – | –
11 | SW 900 | 0.37 | 0.35 | 0.488 | 0.515 | 0.568 | 0.496 | 0.606 | 0.478 | 0.367 | 0.417 | – | 0.287 | 0.418 | 0.28 | – | – | – | –
12 | A549 | – | – | – | – | – | 0.154 | 0.217 | 0.233 | 0.101 | 0.116 | – | – | – | – | 0.523 | 0.365 | 0.4 | 0.425
13 | LCLC-103H | 0.787 | 0.773 | 0.761 | 0.776 | 0.784 | 0.361 | 0.308 | 0.323 | 0.323 | 0.32 | 0.503 | 0.478 | 0.531 | 0.475 | – | – | – | –
